Results as given in patent publication US12533343B2, “Method for preparing (−)-cibenzoline succinate” (CELLTRION, INC., priority 2018, dated 2026).

Assays:
Format in all cases: physicochemical
[1] = Long-term storage stability test; conditions: for Assay by potentiometry (on dried basis) / Chiral purity by HPLC S-Isomer Content / Identification by IR / Loss on drying at 105° C. for 3 hours / Related substance by HPLC Single maximum unknown impurity / Related substance by HPLC Total impurity: 25±2° C., RH 60±5%
Method: And related substances was measured by HPLC under below conditions.
(§1) <Packing details>—Primary packing: (−)-Cibenzoline succinic acid salt obtained by Example 4 shall be packed in transparent LDPE bag, twist and tie with Strip seal. • Secondary packing: The above bag shall be kept in Black color LDPE bag, twist and tie with Strip seal. • Tertiary packing: The above bag shall be kept Triple laminated aluminum bag with heat seal. Keep this bag in HDPE drum and close with lid.

[2] = Accelerated stability test; conditions: for Assay by potentiometry (on dried basis) / Chiral purity by HPLC S-Isomer Content / Identification by IR / Loss on drying at 105° C. for 3 hours / Related substance by HPLC Single maximum unknown impurity / Related substance by HPLC Total impurity: 40±2° C., RH 75±5%
Text: as §1

[3] = Particle size analysis
Text: The powder sample was dispersed with a dispersion pressure of 2 bar.
The accompanying Table 9 (ref. 2019 USP 42 NF 37 Volume 4 physical tests <811> powder fineness) indicates particle size distribution associated with corresponding values.

[4] = Hygroscopicity; conditions: 25±1° C., 24 hours, 80±2% RH
Text: The hygroscopicity was to describe the water vapor uptake behavior of solid by mass changes.
The results of the hygroscopicity study shall be interpreted based on the criteria in Table 11 (ref. EUROPEAN PHARMACOPOEIA 9.0 volume 1 5.11. characters section in monographs).

[5] = powder dispersed at 2 bar, listed as (−)-Cibenzoline succinic acid salt

Compound: O=C(O)CCC(=O)O.c1ccc(C2(c3ccccc3)C[C@@H]2C2=NCCN2)cc1 [Example 4, (−)-Cibenzoline succinic acid salt]
- Assay by potentiometry (on dried basis) ([1]; 1-month): 99.9 % w/w
- Chiral purity by HPLC S-Isomer Content ([1]; 1-month): 100.0 % Area normalization
- Identification by IR ([1]; 1-month): Complies
- Loss on drying at 105° C. for 3 hours ([1]; 1-month): 0.04 % w/w
- Related substance by HPLC Single maximum unknown impurity ([1]; 1-month): 0.01 % w/w
- Related substance by HPLC Total impurity ([1]; 1-month): 0.01 % w/w
- Assay by potentiometry (on dried basis) ([1]; 2-month): 100.1 % w/w
- Chiral purity by HPLC S-Isomer Content ([1]; 2-month): 100.0 % Area normalization
- Identification by IR ([1]; 2-month): Complies
- Loss on drying at 105° C. for 3 hours ([1]; 2-month): 0.07 % w/w
- Related substance by HPLC Single maximum unknown impurity ([1]; 2-month): 0.01 % w/w
- Related substance by HPLC Total impurity ([1]; 2-month): 0.01 % w/w
- Assay by potentiometry (on dried basis) ([1]; 3-month): 100.2 % w/w
- Chiral purity by HPLC S-Isomer Content ([1]; 3-month): 100.0 % Area normalization
- Identification by IR ([1]; 3-month): Complies
- Loss on drying at 105° C. for 3 hours ([1]; 3-month): 0.14 % w/w
- Assay by potentiometry (on dried basis) ([1]; 6-month): 100.2 % w/w
- Chiral purity by HPLC S-Isomer Content ([1]; 6-month): 100.0 % Area normalization
- Identification by IR ([1]; 6-month): Complies
- Loss on drying at 105° C. for 3 hours ([1]; 6-month): 0.18 % w/w
- Assay by potentiometry (on dried basis) ([1]; Initial): 100.1 % w/w
- Chiral purity by HPLC S-Isomer Content ([1]; Initial): 100.0 % Area normalization
- Identification by IR ([1]; Initial): Complies
- Loss on drying at 105° C. for 3 hours ([1]; Initial): 0.11 % w/w
- Related substance by HPLC Single maximum unknown impurity ([1]; Initial): 0.01 % w/w
- Related substance by HPLC Total impurity ([1]; Initial): 0.01 % w/w
- change of (S)-form to (R)-form ([1]; long-term storage conditions): not changed to (R)-form
- stability conclusion ([1]; long-term storage conditions): excellent stability
- white crystalline powder form over storage ([1]; six months, long-term storage conditions): uniformly maintained
- Assay by potentiometry (on dried basis) ([2]; 1-month): 100.1 % w/w
- Chiral purity by HPLC S-Isomer Content ([2]; 1-month): 100.0 % Area normalization
- Identification by IR ([2]; 1-month): Complies
- Loss on drying at 105° C. for 3 hours ([2]; 1-month): 0.15 % w/w
- Related substance by HPLC Single maximum unknown impurity ([2]; 1-month): 0.01 % w/w
- Related substance by HPLC Total impurity ([2]; 1-month): 0.01 % w/w
- Assay by potentiometry (on dried basis) ([2]; 2-month): 100.3 % w/w
- Chiral purity by HPLC S-Isomer Content ([2]; 2-month): 100.0 % Area normalization
- Identification by IR ([2]; 2-month): Complies
- Loss on drying at 105° C. for 3 hours ([2]; 2-month): 0.12 % w/w
- Assay by potentiometry (on dried basis) ([2]; 3-month): 100.1 % w/w
- Chiral purity by HPLC S-Isomer Content ([2]; 3-month): 100.0 % Area normalization
- Identification by IR ([2]; 3-month): Complies
- Loss on drying at 105° C. for 3 hours ([2]; 3-month): 0.09 % w/w
- Assay by potentiometry (on dried basis) ([2]; 6-month): 99.6 % w/w
- Chiral purity by HPLC S-Isomer Content ([2]; 6-month): 100.0 % Area normalization
- Identification by IR ([2]; 6-month): Complies
- Loss on drying at 105° C. for 3 hours ([2]; 6-month): 0.10 % w/w
- Assay by potentiometry (on dried basis) ([2]; Initial): 100.1 % w/w
- Chiral purity by HPLC S-Isomer Content ([2]; Initial): 100.0 % Area normalization
- Identification by IR ([2]; Initial): Complies
- Loss on drying at 105° C. for 3 hours ([2]; Initial): 0.11 % w/w
- Related substance by HPLC Single maximum unknown impurity ([2]; Initial): 0.01 % w/w
- Related substance by HPLC Total impurity ([2]; Initial): 0.01 % w/w
- stability conclusion ([2]; accelerated conditions): excellent stability
- change of (S)-form to (R)-form ([2]; accelerated stability test section): not changed to (R)-form
- white crystalline powder form over storage ([2]; six months, accelerated conditions): uniformly maintained
- Classification (particle size) ([3]; USP <811> powder fineness): Very fine
- d10 ([3]; powder dispersed at 2 bar): 15.2 μm
- d50 ([3]; powder dispersed at 2 bar): 104 μm
- d90 ([3]; powder dispersed at 2 bar): 265 μm
- d50 [3, 5]: 104.0 μm
- d90 [3, 5]: 265.0 μm
- Mass change [4]: 0.01%
- Hygroscopicity evaluation ([4]; Ph. Eur. criteria): Non hygroscopic
